Experimental data: US20210269859A1, “PATHOGEN AND ANT[…]” (priority 2014, published 2021)
Read-outs that look alike come from different tables or passages of the source.

Assays:
Type in all cases: cell-based
[1] = tested on: kanamycin resistant E. coli K12 MG1655 strain; details: 100 μl
Description: (§1) A single E. coli bacterial colony (E. coli K12 MG1655) known to be resistant to kanamycin and a single E. coli bacterial colony (E. coli K12 MG1655) known to be resistant to carbenicillin were separately cultured in LB media for 12-15 hrs until the bacterial cells were in mid-log phase (about 10^8 cells/nil). The culture was then serial diluted to 5×10^2, 5×10^3, 5×10^4, and 5×10^5 cells in LB media containing either 50 μg/ml kanamycin or 100 μg/ml carbenicillin. Resazurin was added to each dilution at a final concentration of 20, 40, or 80 μM in a total reaction volume of 100 μl. Each diluted culture was cultured at 37° C. and fluorescence was measured at wavelength 590 nm at 0, 1, 2, 3, 4, 5, and 6 hrs from the start of culture in the presence of the antibiotic.

[2] = tested on: kanamycin resistant E. coli K12 MG1655 strain; details: 10 μl
Description: as §1
The resazurin reduction method was repeated using the kanamycin resistant strain but in a 10 μl total reaction volume and with final cell concentrations of 5×10^1, 5×10^2, 5×10^3, and 5×10^4 cells per reaction. The same final resazurin concentrations (20, 40, or 80 μM), kanamycin concentration, and carbenicillin concentration were used as above. Fluorescence was measured at wavelength 590 nm at 0, 1, 2, 3, 4, 5, 6, and 7 hrs from the start of culture in the presence of the antibiotic.

[3] = tested on: carbenicillin resistant E. coli K12 MG1655 strain; assay: Resazurin reduction method, 100 μl total reaction volume
Description: as §1

[4] = 50 μg/ml kanamycin or 100 μg/ml carbenicillin, 5×10^2 to 5×10^5 cells, resazurin 20, 40 or 80 μM, 37° C., 0-6 hrs
[5] = higher initial cell concentrations (5×10^3, 5×10^4, 5×10^5 cells)
[6] = lower initial cell concentration (5×10^2 cells)

SMILES | growth of the strain in the presence of the antibiotic (fluorescence at 590 nm) [1, 4] | growth of the strain in the presence of the antibiotic (fluorescence at 590 nm) ([2]; same kanamycin and carbenicillin concentrations, 5×10^1 to 5×10^4 cells per reaction, resazurin 20, 40 or 80 μM, 0-7 hrs) | growth of the strain in the presence of the antibiotic (fluorescence at 590 nm) [3, 4] | time after initiating the culture at which resistance to the antibiotic could be detected [3, 5] [h] | time after initiating the culture at which resistance to the antibiotic began showing [3, 6] | time after initiating the culture at which resistance to the antibiotic could be detected [1, 5] [h] | time after initiating the culture at which resistance to the antibiotic began showing [1, 6] | time after initiating the culture at which resistance to the antibiotic could be detected ([2]; higher initial cell concentrations (5×10^2, 5×10^3, 5×10^4 cells)) [h] | time after initiating the culture at which resistance to the antibiotic began showing ([2]; lower initial cell concentration (5×10^1 cells))
CC1(C)S[C@@H]2[C@H](NC(=O)C(C(=O)O)c3ccccc3)C(=O)N2[C@H]1C(=O)O (stereo partly drawn) [carbenicillin] | slow or no growth | slow or no growth | growth | 1 to 5 | about 6 hrs |  |  |  | 
NC[C@H]1O[C@H](O[C@H]2[C@H](O)[C@@H](O[C@H]3O[C@H](CO)[C@@H](O)[C@H](N)[C@H]3O)[C@H](N)C[C@@H]2N)[C@H](O)[C@@H](O)[C@@H]1O [kanamycin] |  |  |  |  |  | 1 to 5 | about 6 hrs | 1 to 6 | about 7 hrs
